According to PMC3404106, “Pharmacology of DB844, an Orally Active aza Analogue of Pafuramidine, in a Monkey Model of Second Stage Human African Trypanosomiasis” (PLoS Neglected Tropical Diseases, 2012):
“Also recorded” adds a separate entry of the source.

Legend:
[1] = Pharmacokinetics (plasma and CSF) in infected monkeys after last DB844 dose; conditions: for Tmax: po
[2] = Metabolism of DB844 in vervet monkey liver microsomes; type: in vitro ADME
Description: The metabolism of DB844 was investigated using liver microsomes, prepared from a male vervet monkey by XenoTech, LLC (Lenexa, KS), in the presence of NADPH as described previously with modifications. Briefly, incubation mixtures (1 ml at pH7.4, in triplicate) contained 10 µM DB844 and 0.2 mg/ml monkey liver microsomes. After a 5-min equilibration period at 37°C, reactions were initiated with the addition of NADPH. Aliquots (50 µl) of the reaction mixtures were removed at 0, 5, 10, 15, 30, 60, 90, and 120 min and mixed with 25 µl of ice-cold acetonitrile. The mixtures were centrifuged (10,000×g for 5 min at 4°C) and the supernatants were analyzed by HPLC/UV using the same method as previously described for DB289 [22]. […] DB844 and metabolites were quantified using a single-concentration calibration curve generated using synthetic standards.

[3] = tested on: Trypanosoma brucei rhodesiense KETRI 2537; set-up: method as in earlier work; conditions: treatment initiated at 28 DPI; unpublished TRC-KARI data; cited from earlier work
[4] = set-up: method as in PMID 20721830; conditions: extended phase I clinical trial, 14 day dose regimen of 100 mg bid; cited from earlier work
[5] = set-up: method as in PMID 17360833; conditions: dosed orally to cynomolgus monkey at 5 mg/kg; cited from earlier work
[6] = tested on: 2nd stage HAT; set-up: method as in PMID 19620327, PMID 19064893; conditions: cited from earlier work

With `N=C(N)c1ccc(-c2ccc(-c3ccc(C(=N)N)cn3)o2)cc1` [DB820] the “sporadic CSF concentration” value ([1]; 2/7 monkeys (571 and 624), between 24 and 96 h post dose) was under 4 nM, the “detection in the CSF” value ([1]; after last dose of DB844 6 mg/kg×14 days, samples at 1, 24, 96, 168 h and weekly) was “not detected” and the concentration at 28 days ([1]; monkey, in vivo, 6 mg/kg) was 35 nM. The Tmax ([1]; monkey, in vivo, 6 mg/kg, Tmax, plasma, after the 14th oral dose of DB844 at 6 mg/kg, n = 7, median, analyte = label) was 4.08 h, the Tmax ([1]; monkey, in vivo, 6 mg/kg, time of peak plasma concentration, after the last (14th) dose of DB844 at 6 mg/kg, analyte = label) was 4 h and the AUClast ([1]; plasma, after the 14th oral dose of DB844 at 6 mg/kg, n = 7, geometric mean, analyte = label) was 1400 nmol·days/L.
For `CO/N=C(/N)c1ccc(-c2ccc(-c3ccc(/C(N)=N/O)cc3)o2)nc1` [M1B], the “relative metabolite concentration in the drug/liver microsome mixture” value [2] was “highest concentrations during the initial 20 minutes”.
In the case of `CONC(=N)c1ccc(-c2ccc(-c3ccc(C(=N)NOC)cc3)o2)cc1` [pafuramidine, 2,5-bis(4-amidinophenyl)furan-bis-O-methylamidoxime], the “cure in the vervet monkey model of CNS stage HAT” value [3] is given as “non-curative; also recorded: did not cure any monkey”, the “subjects who developed delayed renal insufficiency” value [4] is given as 6% and the Cmax [5] is given as 30 to 35 nM. For the same compound, the “cure against 2nd stage HAT in animal models” value [6] was “did not achieve cure”.
In the case of `N=C(N)c1ccc(OCCCCCOc2ccc(C(=N)N)cc2)cc1` [pentamidine], the “cure in the vervet monkey model of CNS stage HAT” value [3] is listed as “non-curative; also recorded: did not cure any monkey” and the “cure against 2nd stage HAT in animal models” value [6] is listed as “did not achieve cure”.
